Literature values, collected in patent publication US20120220630A1, “PRUCALOPRIDE ORAL SOLUTION” (Shire-Movetis NV, priority 2011, published 2012).

Legend:
[1] = target: 5-HT2A receptors (Homo sapiens, UniProt P28223)
[2] = tested on: 5-HT3 receptors
[3] = target: 5-HT4 receptors (Homo sapiens, UniProt Q13639)
[4] = tested on: colonic motility and defecation; conditions: in animals

5-HT4 receptors, sequence (Q13639 whole entry): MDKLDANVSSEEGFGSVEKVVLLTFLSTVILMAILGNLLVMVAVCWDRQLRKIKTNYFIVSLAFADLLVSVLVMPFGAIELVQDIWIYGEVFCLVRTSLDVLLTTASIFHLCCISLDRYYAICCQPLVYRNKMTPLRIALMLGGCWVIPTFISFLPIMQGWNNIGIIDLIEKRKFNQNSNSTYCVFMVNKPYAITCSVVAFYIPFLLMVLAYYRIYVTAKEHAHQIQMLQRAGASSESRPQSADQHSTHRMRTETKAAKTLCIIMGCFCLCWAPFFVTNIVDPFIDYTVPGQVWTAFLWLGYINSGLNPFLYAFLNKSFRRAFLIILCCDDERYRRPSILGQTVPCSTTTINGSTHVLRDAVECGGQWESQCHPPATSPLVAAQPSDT
5-HT2A receptors, sequence (P28223 whole entry): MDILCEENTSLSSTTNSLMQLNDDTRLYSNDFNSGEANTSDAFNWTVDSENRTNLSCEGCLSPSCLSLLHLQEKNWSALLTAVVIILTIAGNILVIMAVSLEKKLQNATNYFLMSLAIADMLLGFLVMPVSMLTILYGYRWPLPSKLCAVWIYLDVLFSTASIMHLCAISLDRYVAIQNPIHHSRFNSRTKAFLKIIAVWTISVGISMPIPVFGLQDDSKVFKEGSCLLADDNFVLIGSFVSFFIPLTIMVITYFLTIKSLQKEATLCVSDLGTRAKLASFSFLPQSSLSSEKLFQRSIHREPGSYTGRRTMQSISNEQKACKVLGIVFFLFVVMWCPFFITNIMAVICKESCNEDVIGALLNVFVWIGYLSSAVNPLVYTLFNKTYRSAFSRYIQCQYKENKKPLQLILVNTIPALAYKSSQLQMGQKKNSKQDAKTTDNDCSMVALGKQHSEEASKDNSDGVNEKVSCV

SMILES: COCCCN1CCC(NC(=O)c2cc(Cl)c(N)c3c2OCC3)CC1 [Prucalopride, 4-amino-5-chloro-2,3-dihydro-N-[1-(3-methoxypropyl)-4-piperidinyl]-7-benzofuran-carboxamide]
- affinity for 5-HT2A receptors [1]: no affinity
- affinity for 5-HT3 receptors [2]: no affinity
- agonism of 5-HT4 receptors [3]: potent and selective agonist
- colonic motility and defecation [4]: stimulates colonic motility and defecation
